The results in this text go back to US10611730B2, “Benzimidazolone and benzothiazolone compounds and their use as AMPA receptor modulators” (Janssen Pharmaceutica NV, priority 2015, dated 2020).

Sequence of TARP γ8 dependent AMPA receptor (GluA1o-g8 fusion channel) (P42261 other isoform, or with tags, fused parts or gaps): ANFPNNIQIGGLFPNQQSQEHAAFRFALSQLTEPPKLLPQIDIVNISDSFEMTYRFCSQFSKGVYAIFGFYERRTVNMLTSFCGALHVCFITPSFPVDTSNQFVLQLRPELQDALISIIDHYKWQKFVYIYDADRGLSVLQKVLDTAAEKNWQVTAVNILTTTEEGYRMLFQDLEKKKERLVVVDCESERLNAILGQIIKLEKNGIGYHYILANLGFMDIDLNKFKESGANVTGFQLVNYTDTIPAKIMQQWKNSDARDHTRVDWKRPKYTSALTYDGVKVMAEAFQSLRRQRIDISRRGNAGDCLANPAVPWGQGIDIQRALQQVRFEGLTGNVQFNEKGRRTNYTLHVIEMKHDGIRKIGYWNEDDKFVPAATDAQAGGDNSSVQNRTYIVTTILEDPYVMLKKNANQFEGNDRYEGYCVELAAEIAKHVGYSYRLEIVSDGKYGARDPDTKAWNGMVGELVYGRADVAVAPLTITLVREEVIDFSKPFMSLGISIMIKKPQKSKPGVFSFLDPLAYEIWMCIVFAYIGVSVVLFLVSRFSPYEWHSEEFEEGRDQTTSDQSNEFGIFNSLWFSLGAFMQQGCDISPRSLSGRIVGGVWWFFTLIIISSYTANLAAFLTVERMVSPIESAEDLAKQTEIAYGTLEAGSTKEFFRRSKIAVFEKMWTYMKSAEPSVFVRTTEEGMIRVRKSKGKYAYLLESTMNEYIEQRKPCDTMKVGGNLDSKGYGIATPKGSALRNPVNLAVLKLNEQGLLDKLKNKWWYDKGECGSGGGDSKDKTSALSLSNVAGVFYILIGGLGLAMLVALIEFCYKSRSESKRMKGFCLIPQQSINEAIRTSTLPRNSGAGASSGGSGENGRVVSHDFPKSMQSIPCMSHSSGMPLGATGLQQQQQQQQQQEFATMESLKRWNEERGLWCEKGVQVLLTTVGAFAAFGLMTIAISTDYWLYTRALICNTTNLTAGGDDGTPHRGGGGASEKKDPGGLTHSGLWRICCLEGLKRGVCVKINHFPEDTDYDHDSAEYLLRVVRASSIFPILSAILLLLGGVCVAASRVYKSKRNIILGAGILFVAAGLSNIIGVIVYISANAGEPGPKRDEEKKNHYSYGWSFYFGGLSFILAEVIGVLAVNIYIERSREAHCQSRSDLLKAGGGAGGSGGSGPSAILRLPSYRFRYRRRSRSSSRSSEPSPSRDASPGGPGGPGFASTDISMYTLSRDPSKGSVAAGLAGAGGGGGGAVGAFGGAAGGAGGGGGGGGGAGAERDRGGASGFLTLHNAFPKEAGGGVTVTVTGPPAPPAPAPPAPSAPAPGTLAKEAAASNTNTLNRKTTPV

This test addresses TARP γ8 dependent AMPA receptor (GluA1o-g8 fusion channel) (Homo sapiens (Human), UniProt P42261+Q8WXS5). The test is described as follows: Calcium flux assay (FLIPR), HEK293 cells expressing GRIA1o-CACNG8 fusion. The format is cell-based. Conditions: inhibition of calcium flux after 15 μM glutamate, read-out: GluR1-γ8 pIC50 (converted). An excerpt: This assay was used to test compounds for their ability to inhibit TARP γ8 dependent AMPA receptor activity.
An in vitro assay was used to determine the potency of test compounds as inhibitors of the glutamate response of the channel formed by GluA1o-g8. To ensure a 1:1 stoichiometry of GluA1o and g8 subunits in the expressed channel, a fusion of the cDNAs for GRIA1o and CACNG8 was used. […] A clonal cell line in HEK293 cells stably expressing this construct, with a geneticin selection marker, was generated for use in this assay. Cell expressing the GRIAlo-CACNG8 fusion construct were grown in a monolayer in 96- or 384-well microtiter plates. […] The cells were then loaded with a calcium-sensitive dye (Calcium-5 or Calcium-6, Molecular Devices) and the test compounds at a range of concentrations.
The fluorescence in each well was normalized to the fluorescence of negative and positive control wells. […] The responses to glutamate as functions of the test compound concentrations were fitted to a four-parameter logistic function. The fitted parameter corresponding to the midpoint was taken to be the potency of inhibition of the compound.
`O=c1[nH]c2ccc(-c3ccc(OC(F)(F)F)cc3Cl)cc2[nH]1` [Example 30, 5-[2-Chloro-4-(trifluoromethoxy)phenyl]-1,3-dihydrobenzimidazol-2-one]: the IC50 was 1580 nM.
As for `N#Cc1ccc(Cl)c(-c2ccc3[nH]c(=O)[nH]c3c2)c1` [Example 40, 4-Chloro-3-(2-oxo-1,3-dihydrobenzimidazol-5-yl)benzonitrile], the figure is 1580 nM; as for `Cn1cc(-c2cccc(Cl)c2-c2ccc3[nH]c(=O)[nH]c3c2)cn1` [Example 173, 5-[2-Chloro-6-(1-methylpyrazol-4-yl)phenyl]-1,3-dihydrobenzimidazol-2-one], 398 nM; as for `Cc1cccc(-c2ccc(F)cc2)c1-c1ccc2[nH]c(=O)[nH]c2c1` [Example 181, 5-[2-(4-Fluorophenyl)-6-methyl-phenyl]-1,3-dihydrobenzimidazol-2-one], 100 nM.
In the case of `O=c1[nH]c2ccc(-c3cc(C(F)(F)F)ccc3Cl)cc2[nH]1` [Example 25, 5-[2-Chloro-5-(trifluoromethyl)phenyl]-1,3-dihydrobenzimidazol-2-one], the IC50 was 251 nM.
Take `Cn1ccc(-c2cccc(-c3ccc4[nH]c(=O)[nH]c4c3)c2Cl)n1` [Example 183, 5-[2-Chloro-3-(1-methylpyrazol-3-yl)phenyl]-1,3-dihydrobenzimidazol-2-one]: the IC50 was 1580 nM.
As to `Cc1ccc(Cl)c(-c2ccc3[nH]c(=O)[nH]c3c2)c1Cl` [Example 23, 5-(2,6-Dichloro-3-methyl-phenyl)-1,3-dihydrobenzimidazol-2-one], the IC50 is 15.8 nM.
The result for `CC(C)(C)OC(=O)N1CCN(c2ccccc2-c2ccc3[nH]c(=O)[nH]c3c2)CC1` [Example 9, tert-Butyl 4-[2-(2-oxo-1,3-dihydrobenzimidazol-5-yl)phenyl]piperazine-1-carboxylate] reads 794 nM; that for `COc1cccc(OC(C)(C)C)c1-c1ccc2[nH]c(=O)[nH]c2c1` [Example 117, 5-(2-tert-Butoxy-6-methoxy-phenyl)-1,3-dihydrobenzimidazol-2-one], 1000 nM; that for `O=c1[nH]c2ccc(-c3c(Cl)ccc(CN4CCCCC4)c3Cl)cc2[nH]1` [Example 140, 5-[2,6-Dichloro-3-(1-piperidylmethyl)phenyl]-1,3-dihydrobenzimidazol-2-one], 398 nM.
As for `CC(C)(C)COc1cccc(Cl)c1-c1ccc2[nH]c(=O)[nH]c2c1` [Example 98, 5-[2-Chloro-6-(2,2-dimethylpropoxy)phenyl]-1,3-dihydrobenzimidazol-2-one], the figure is 50.1 nM; as for `O=Cc1cccc(F)c1-c1ccc2[nH]c(=O)[nH]c2c1` [Example 27, 3-Fluoro-2-(2-oxo-1,3-dihydrobenzimidazol-5-yl)benzaldehyde], 1580 nM.
As for `O=c1[nH]c2ccc(-c3c(Cl)cccc3-c3cncnc3)cc2[nH]1` [Example 178, 5-(2-Chloro-6-pyrimidin-5-yl-phenyl)-1,3-dihydrobenzimidazol-2-one], the figure is 3980 nM; as for `O=c1[nH]c2ccc(-c3ccccc3Br)cc2[nH]1` [Example 35, 5-(2-Bromophenyl)-1,3-dihydrobenzimidazol-2-one], 251 nM; as for `O=c1[nH]c2ccc(-c3c(Cl)ccc(CN4CCOCC4)c3Cl)cc2[nH]1` [Example 139, 5-[2,6-Dichloro-3-(morpholinomethyl)phenyl]-1,3-dihydrobenzimidazol-2-one], 251 nM.
For `O=c1[nH]c2ccc(-c3cccc(OCC4CC4(F)F)c3Cl)cc2[nH]1` (racemic) [Example 111, (±)-5-[2-Chloro-3-[(2,2-difluorocyclopropyl)methoxy]phenyl]-1,3-dihydrobenzimidazol-2-one], the IC50 is 50.1 nM.
Consider `CC(C)Oc1cccc(OC(F)(F)F)c1-c1ccc2[nH]c(=O)[nH]c2c1` [Example 88, 5-[2-Isopropoxy-6-(trifluoromethoxy)phenyl]-1,3-dihydrobenzimidazol-2-one], for which the IC50 was 7.94 nM.
The result for `O=c1[nH]c2ccc(-c3c(Cl)cccc3OCC(F)(F)F)cc2[nH]1` [Example 95, 5-[2-Chloro-6-(2,2,2-trifluoroethoxy)phenyl]-1,3-dihydrobenzimidazol-2-one] reads 50.1 nM; that for `Cc1ccc(C)c(-c2ccc3[nH]c(=O)[nH]c3c2)c1` [Example 21, 5-(2,5-Dimethylphenyl)-1,3-dihydrobenzimidazol-2-one], 398 nM.
The result for `O=c1[nH]c2ccc(-c3c(F)cccc3F)cc2[nH]1` [Example 52, 5-(2,6-Difluorophenyl)-1,3-dihydrobenzimidazol-2-one] reads 1000 nM.
With `Cc1ccc(Cl)c(-c2ccc3[nH]c(=O)[nH]c3c2)c1` [Example 19, 5-(2-Chloro-5-methyl-phenyl)-1,3-dihydrobenzimidazol-2-one], the IC50 is 200 nM.
Take `Cc1c(C(=O)N2CCOCC2)cccc1-c1ccc2[nH]c(=O)[nH]c2c1` [Example 82, 5-[2-Methyl-3-(morpholine-4-carbonyl)phenyl]-1,3-dihydrobenzimidazol-2-one]: the IC50 is 5010 nM.
The result for `Cc1c(-c2cccc(Cl)c2-c2ccc3[nH]c(=O)[nH]c3c2)cnn1C` [Example 177, 5-[2-Chloro-6-(1,5-dimethylpyrazol-4-yl)phenyl]-1,3-dihydrobenzimidazol-2-one] reads 794 nM.
As for `N#CCc1ccc(Cl)c(-c2ccc3[nH]c(=O)[nH]c3c2)c1Cl` [Example 131, 2-[2,4-Dichloro-3-(2-oxo-1,3-dihydrobenzimidazol-5-yl)phenyl]acetonitrile], the figure is 2000 nM; as for `O=c1[nH]c2ccc(-c3cccc(CN4CCCCC4)c3Cl)cc2[nH]1` [Example 142, 5-[2-Chloro-3-(1-piperidylmethyl)phenyl]-1,3-dihydrobenzimidazol-2-one], 631 nM; as for `COc1cc(OC(F)(F)F)ccc1-c1ccc2[nH]c(=O)[nH]c2c1` [Example 33, 5-[2-Methoxy-4-(trifluoromethoxy)phenyl]-1,3-dihydrobenzimidazol-2-one], 316 nM.
The result for `O=c1[nH]c2ccc(-c3cccc(Cl)c3OC(F)(F)F)cc2[nH]1` [Example 29, 5-[3-Chloro-2-(trifluoromethoxy)phenyl]-1,3-dihydrobenzimidazol-2-one] reads 31.6 nM; that for `N#CCc1cccc(-c2ccc(F)cc2)c1-c1ccc2[nH]c(=O)[nH]c2c1` [Example 135, 2-[3-(4-Fluorophenyl)-2-(2-oxo-1,3-dihydrobenzimidazol-5-yl)phenyl]acetonitrile], 20 nM; that for `O=C(Nc1ccccc1)c1ccc(Cl)c(-c2ccc3[nH]c(=O)[nH]c3c2)c1` [Example 83, 4-Chloro-3-(2-oxo-1,3-dihydrobenzimidazol-5-yl)-N-phenyl-benzamide], 2510 nM.
For the compound `O=c1[nH]c2ccc(-c3ccccc3Cc3ccccc3)cc2[nH]1` [Example 59, 5-(2-Benzylphenyl)-1,3-dihydrobenzimidazol-2-one], the IC50 is 316 nM.
`CC(C)Oc1cccc(Cl)c1-c1ccc2[nH]c(=O)[nH]c2c1` [Example 91, 5-(2-Chloro-6-isopropoxy-phenyl)-1,3-dihydrobenzimidazol-2-one]: the IC50 is 79.4 nM.
The result for `COc1cccc(Cl)c1-c1ccc2[nH]c(=O)[nH]c2c1` [Example 20, 5-(2-Chloro-6-methoxy-phenyl)-1,3-dihydrobenzimidazol-2-one] reads 251 nM; that for `Cc1cccc(-c2ccccc2)c1-c1ccc2[nH]c(=O)[nH]c2c1` [Example 179, 5-(2-Methyl-6-phenyl-phenyl)-1,3-dihydrobenzimidazol-2-one], 63.1 nM; that for `Cc1noc(C)c1-c1cccc(Cl)c1-c1ccc2[nH]c(=O)[nH]c2c1` [Example 174, 5-[2-Chloro-6-(3,5-dimethylisoxazol-4-yl)phenyl]-1,3-dihydrobenzimidazol-2-one], 794 nM.
Regarding `COc1cccc(OCC(C)(C)C)c1-c1ccc2[nH]c(=O)[nH]c2c1` [Example 104, 5-[2-(2,2-Dimethylpropoxy)-6-methoxy-phenyl]-1,3-dihydrobenzimidazol-2-one], the IC50 is 100 nM.
For `COC1CCN(c2cccc(-c3ccc4[nH]c(=O)sc4c3)c2Cl)CC1` [Example 213, 6-(2-Chloro-3-(4-methoxypiperidin-1-yl)phenyl)benzo[d]thiazol-2(3H)-one], the IC50 was 2510 nM.
The result for `CNC(=O)Cc1c(-c2ccc3[nH]c(=O)[nH]c3c2)cccc1C(F)(F)F` [Example 78, N-Methyl-2-[2-(2-oxo-1,3-dihydrobenzimidazol-5-yl)-6-(trifluoromethyl)phenyl] acetamide] reads 200 nM; that for `O=c1[nH]c2ccc(-c3cccc(-c4nnco4)c3Cl)cc2[nH]1` [Example 190, 5-[2-Chloro-3-(1,3,4-oxadiazol-2-yl)phenyl]-1,3-dihydrobenzimidazol-2-one], 2000 nM.
The result for `CC(Oc1cccc(Cl)c1-c1ccc2[nH]c(=O)[nH]c2c1)C(F)(F)F` (racemic) [Example 118, (±)-5-[2-Chloro-6-(2,2,2-trifluoro-1-methyl-ethoxy)phenyl]-1,3-dihydrobenzimidazol-2-one] reads 31.6 nM.
The result for `N#CCc1cccc(Br)c1-c1ccc2[nH]c(=O)[nH]c2c1` [Example 132, 2-[3-Bromo-2-(2-oxo-1,3-dihydrobenzimidazol-5-yl)phenyl]acetonitrile] reads 31.6 nM.
